# Data from patent US9693556B2, “Herbicidal pyridazinone derivatives” (SYNGENTA LIMITED, priority 2011, dated 2017).
# Key:
# Assay type in all cases: in vivo
# [1] = system: Amaranthus retoflexus (AMARE); assay: Pre-emergence herbicidal glasshouse test on Amaranthus retoflexus; conditions: pre-emergence; 1000 g/h; evaluated after 13 days
# Summary of the method: (§1)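 Pre-emergence treatment came one day after sowing, post-emergence treatment after eight days' growth; both used 1000 g/h in a 0.5% Tween 20 acetone/water vehicle. Percent damage, scored 1–5, was read 13 days later.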
# [2] = system: Echinochloa crus-galli (ECHCG); assay: Pre-emergence herbicidal glasshouse test on Echinochloa crus-galli; conditions: pre-emergence; 1000 g/h; evaluated after 13 days
# Summary of the method: as §1
# [3] = system: Ipomoea hederacea (IPOHE); assay: Post-emergence herbicidal glasshouse test on Ipomoea hederacea; conditions: post-emergence; 1000 g/h; evaluated after 13 days
# Summary of the method: as §1
# Solanum nigrum (SOLNI) [4] = assay: Pre-emergence herbicidal glasshouse test on Solanum nigrum; conditions: pre-emergence; 1000 g/h; evaluated after 13 days
# Summary of the method: as §1
# [5] = system: Echinochloa crus-galli (ECHCG); assay: Post-emergence herbicidal glasshouse test on Echinochloa crus-galli; conditions: post-emergence; 1000 g/h; evaluated after 13 days
# Summary of the method: as §1
# Solanum nigrum (SOLNI) [6] = assay: Post-emergence herbicidal glasshouse test on Solanum nigrum; conditions: post-emergence; 1000 g/h; evaluated after 13 days
# Summary of the method: as §1
# [7] = system: Alopecurus myosuroides (ALOMY); assay: Pre-emergence herbicidal glasshouse test on Alopecurus myosuroides; conditions: pre-emergence; 1000 g/h; evaluated after 13 days
# Summary of the method: as §1
# [8] = system: Alopecurus myosuroides (ALOMY); assay: Post-emergence herbicidal glasshouse test on Alopecurus myosuroides; conditions: post-emergence; 1000 g/h; evaluated after 13 days
# Summary of the method: as §1
# Setaria faberi (SETFA) [9] = assay: Pre-emergence herbicidal glasshouse test on Setaria faberi; conditions: pre-emergence; 1000 g/h; evaluated after 13 days
# Summary of the method: as §1
# [10] = system: Amaranthus retoflexus (AMARE); assay: Post-emergence herbicidal glasshouse test on Amaranthus retoflexus; conditions: post-emergence; 1000 g/h; evaluated after 13 days
# Summary of the method: as §1
# Setaria faberi (SETFA) [11] = assay: Post-emergence herbicidal glasshouse test on Setaria faberi; conditions: post-emergence; 1000 g/h; evaluated after 13 days
# Summary of the method: as §1
# [12] = system: Ipomoea hederacea (IPOHE); assay: Pre-emergence herbicidal glasshouse test on Ipomoea hederacea; conditions: pre-emergence; 1000 g/h; evaluated after 13 days
# Summary of the method: as §1
SMILES,PRE Application AMARE herbicidal damage (five point scale) [1],PRE Application ECHCG herbicidal damage (five point scale) [2],POST Application IPOHE herbicidal damage (five point scale) [3],PRE Application SOLNI herbicidal damage (five point scale) (Solanum nigrum (SOLNI) [4]),POST Application ECHCG herbicidal damage (five point scale) [5],POST Application SOLNI herbicidal damage (five point scale) (Solanum nigrum (SOLNI) [6]),PRE Application ALOMY herbicidal damage (five point scale) [7],POST Application ALOMY herbicidal damage (five point scale) [8],PRE Application SETFA herbicidal damage (five point scale) (Setaria faberi (SETFA) [9]),POST Application AMARE herbicidal damage (five point scale) [10],POST Application SETFA herbicidal damage (five point scale) (Setaria faberi (SETFA) [11]),PRE Application IPOHE herbicidal damage (five point scale) [12]
Cn1ncc(-c2ccc(Cl)cc2C(F)(F)F)c(O)c1=O [Compound 1.113],5 (5=80-100% damage),1 (1=0-19% damage),5 (5=80-100% damage),4 (4=60-79% damage),2 (2=20-39% damage),5 (5=80-100% damage),1 (1=0-19% damage),2 (2=20-39% damage),1 (1=0-19% damage),5 (5=80-100% damage),3 (3=40-59% damage),2 (2=20-39% damage)
CC(C)(C)n1ncc(-c2c(Cl)cccc2Cl)c(O)c1=O [Compound 1.133],1 (1=0-19% damage),1 (1=0-19% damage),2 (2=20-39% damage),1 (1=0-19% damage),3 (3=40-59% damage),2 (2=20-39% damage),1 (1=0-19% damage),1 (1=0-19% damage),1 (1=0-19% damage),1 (1=0-19% damage),1 (1=0-19% damage),1 (1=0-19% damage)
CC(C)OCc1ccc(-c2cnn(C)c(=O)c2O)c(S(C)(=O)=O)c1 [Compound 2.043],5 (5=80-100% damage),5 (5=80-100% damage),5 (5=80-100% damage),5 (5=80-100% damage),5 (5=80-100% damage),5 (5=80-100% damage),3 (3=40-59% damage),3 (3=40-59% damage),1 (1=0-19% damage),5 (5=80-100% damage),4 (4=60-79% damage),2 (2=20-39% damage)
Cn1ncc(-c2cccn(-c3cccc(F)c3)c2=O)c(O)c1=O [Compound 1.148],1 (1=0-19% damage),1 (1=0-19% damage),3 (3=40-59% damage),1 (1=0-19% damage),2 (2=20-39% damage),3 (3=40-59% damage),1 (1=0-19% damage),1 (1=0-19% damage),1 (1=0-19% damage),2 (2=20-39% damage),4 (4=60-79% damage),2 (2=20-39% damage)
Cc1cc(-c2cnn(C)c(=O)c2O)c(C)c2c1S(=O)(=O)CCC21OCCO1 [Compound 1.031],5 (5=80-100% damage),5 (5=80-100% damage),5 (5=80-100% damage),2 (2=20-39% damage),5 (5=80-100% damage),5 (5=80-100% damage),1 (1=0-19% damage),2 (2=20-39% damage),4 (4=60-79% damage),5 (5=80-100% damage),5 (5=80-100% damage),1 (1=0-19% damage)
"Cc1cccc(-c2c(C(F)(F)F)ccn(-c3cnn(C)c(=O)c3O)c2=O)c1 [Compound 1.038, 4-hydroxy-2-methyl-5-[3-(m-tolyl)-2-oxo-4-(trifluoromethyl)-1-pyridyl]pyridazin-3-one]",5 (5=80-100% damage),5 (5=80-100% damage),4 (4=60-79% damage),5 (5=80-100% damage),4 (4=60-79% damage),5 (5=80-100% damage),3 (3=40-59% damage),4 (4=60-79% damage),3 (3=40-59% damage),5 (5=80-100% damage),5 (5=80-100% damage),1 (1=0-19% damage)
Cc1ccc(F)cc1-c1cnn(C)c(=O)c1O [Compound 1.094],1 (1=0-19% damage),1 (1=0-19% damage),1 (1=0-19% damage),1 (1=0-19% damage),1 (1=0-19% damage),2 (2=20-39% damage),1 (1=0-19% damage),1 (1=0-19% damage),1 (1=0-19% damage),1 (1=0-19% damage),1 (1=0-19% damage),1 (1=0-19% damage)
Cc1ccc(-c2c(C(F)(F)F)ccn(-c3cnn(C)c(=O)c3O)c2=O)cc1[N+](=O)[O-] [Compound 7.027],5 (5=80-100% damage),5 (5=80-100% damage),2 (2=20-39% damage),5 (5=80-100% damage),5 (5=80-100% damage),5 (5=80-100% damage),3 (3=40-59% damage),3 (3=40-59% damage),3 (3=40-59% damage),5 (5=80-100% damage),5 (5=80-100% damage),1 (1=0-19% damage)
Cn1ncc(-c2ccc(S(C)(=O)=O)c3c2COC3)c(O)c1=O [Compound 1.030],5 (5=80-100% damage),2 (2=20-39% damage),3 (3=40-59% damage),4 (4=60-79% damage),4 (4=60-79% damage),5 (5=80-100% damage),1 (1=0-19% damage),1 (1=0-19% damage),1 (1=0-19% damage),5 (5=80-100% damage),2 (2=20-39% damage),1 (1=0-19% damage)
Cn1ncc(-n2ccc(C(F)(F)F)c(-c3cc(Cl)cc(Cl)c3)c2=O)c(O)c1=O [Compound 7.022],5 (5=80-100% damage),5 (5=80-100% damage),2 (2=20-39% damage),5 (5=80-100% damage),5 (5=80-100% damage),5 (5=80-100% damage),5 (5=80-100% damage),4 (4=60-79% damage),5 (5=80-100% damage),5 (5=80-100% damage),5 (5=80-100% damage),2 (2=20-39% damage)
